# Test results: patent US20040106150A1, “Inverse labeling method for the rapid identification of marker/target proteins” (priority 2000, published 2004)
# Entries after “also recorded” stand apart in the source; their conditions may differ.
# Columns and labels:
# [1] = tested on: tumor tissue DU145; assay: Inverse labeling-MS phosphorylation analysis of tissue lysate of mouse tumor xenograft (tumor tissue DU145), in vivo study; design: Change (treated/control), % down: concentration or dose not given beside the values; conditions: for Change (treated/control) / Change (treated/control), % down: tumor tissue, 1 hour treatment
# Experimental: The phosphoproteome mapping method is further tested/applied to an in vivo study of the Raf inhibitor, BPMI (1-hour treatment) in the analysis of tissue lysate of mouse tumor xenograft. […] Although the usual 1 mg of lysate is processed and IMAC enriched, considering the overwhelming blood protein contamination, the actual amount of tissue lysate proteins in the sample is a lot less. For that reason, only 0.05% β-casein is spiked into each tissue lysate sample as internal standard. The methyl esterification/IMAC procedure is successful in removing the blood contamination from the tissue samples. As shown in FIG. 15 (B), inverse labeling-MS analysis after IMAC enrichment clearly detects the down-regulation of Ser^25 phosphorylation of oncoprotein 18, confirming the finding of the cellular studies. Additional changes in phosphorylation are also detected which includes oncogene EMS1, mouse fetuin and Epithelial-cadherin (see Table 3).
# [2] = tested on: HCT116 cells; assay: Inverse labeling-MS phosphorylation analysis of HCT116 cell lysate treated with Raf inhibitor; type: cell-based, Human; conditions: for Change (treated/control) / Change (treated/control), % down: HCT116 cells, 20 μM, 1.5 hours vs DMSO control
# Experimental: Human colorectal cell line HCT116 cells are grown in 6-well plates. Prior to harvesting, the cells are treated with 20 μM of the Raf inhibitor BPMI and DMSO control for 1.5 hours, respectively. Cells are then rinsed with PBS, and lysed for 5 mintues at 4° C. in Doriano lysis buffer with 100 μg/mL Perfabloc/2 μg/mL aprotinin/2 μg/mL leupeptin/1 mM NaVO4/10 mM NaF. The supernatant of the lysates are collected after centrifugation at 3,000 rpm for 5 minutes. The protein concentration is determined using Bio-Rad reagent, and the lysates are frozen at −80° C. prior to further processing and analysis.
# One μL of RNase A (20 mg/mL, Sigma, St Louis, Mo.) and 1 μL of RNase T1 (10 units/mL, Invitrogen, Carlsbad, Calif.) are added to each 1 mL of lysates (total 3 mg of HCT116-DMSO control and 3 mg of HCT116-BPMI, respectively), and incubated at 37° C. for half an hour to degrade RNAs. Proteins are denatured using 6 M guanidine HCl, followed by reduction with 20 mM 1,4-dithio-DL-threitol (DTT) at 58° C. for 40 minutes and alkylation with 40 mM iodoacetamide at room temperature for 30 minutes in the dark. Each protein solution is transferred to a Slide-A-Lyzer ( 10,000 MW cutoff, Pierce, Rockford, Ill.) dialysis cassette and dialyzed against 2 to 0 M urea/50 mM ammonium bicarbonate to remove small molecule impurities and buffer exchange to 50 mM ammonium bicarbonate. Proteolysis is carried out using modified, sequencing grade trypsin (Promega, Madison, Wis.) at a 1:200 trypsin-to-protein ratio (wt:wt) in 50 mM ammonium bicarbonate at 37° C. overnight.
# The peptide digests are filtered through Centricon Filters (10,000 MW cutoff, Millipore, Bedford, Mass.) to remove large molecule impurities including detergents. Flow-through (peptides) is collected. Solvent and ammonium bicarbonate are subsequently removed by SpeedVac drying.
# d0- or d3-methanolic HCl (2 M) (methyl esterification reagent) is prepared by adding 160 μL of acetyl chloride to 1 mL of anhydrous d0-methyl alcohol or d3-methyl d-alcohol drop wise while stirring. After 10 minutes, 1 mL of the methyl esterification reagent is added to 1.5 mg of lyophilized peptide mixture. The reaction is performed in parallel to two identical aliquots for every sample, one using d0-reagent and one using d3-reagent, respectively. The reaction is allowed to proceed at room temperature for 30 minutes. The excess reagents are removed by SpeedVac drying. Subsequently the peptide mixtures are reconstituted with water. The inverse labeling is achieved by mixing d0-control with d3-treated (BPMI) and d3-control with d0-treated.
# Enrichment of phosphopeptides is performed on a 2.1×30 mm IMAC column (POROS 20 MC, Applied Biosystems, Foster City, Calif.). Briefly, the column is washed with water, 100 mM EDTA in 1 M NaCl, followed by water and 1% acetic acid. The column is then activated with 100 mM FeCl3. The SpeedVac dried, 1 mg of the inversely-labeled methyl esterified peptide mixture (500 μg each form of d0 and d3) is dissolved in 1% acetic acid in 50% acetonitrile/water, and loaded onto iron-activated IMAC column. The unbound peptides are removed by washing with 1% acetic acid in 50% acetonitrile/water ([…]). The bound phosphopeptides are eluted with 2% ammonium hydroxide in 50% acetonitrile/water. Acetic acid is added to neutralize the eluent prior to SpeedVac drying. The phosphopeptide mixture is reconstituted with 0.1% formic acid and analyzed using capillary LC/MS, as described below.
# An Ultimate capillary/nano HPLC system (LC Packings, San Francisco, Calif.) with a Swichos micro column-switching module (LC Packings, San Francisco, Calif.) is used for analysis. Separation is carried out on a 0.18×50 mm capillary column, packed with 3 μm C18 stationary phase of 300-Å pore size (PepMap, LC Packings, San Francisco, Calif.), operating at a flow rate of 2 μL/min. Mobile phase A consists of 0.1% (v/v) formic acid in water and mobile phase B of 0. 1% (v/v) formic acid in acetonitrile. […]
# [3] = phosphopeptide ASGQAFELILpSPR, Oncoprotein 18
# [4] = phosphopeptide LPpSSPVYEDAASFK, Oncogene EMS1
# [5] = phosphopeptide MRDWVIPPIpSCPENEK, Epithelial-cadherin (mouse/human)
# [6] = phosphopeptide SKESVPEFPLpSPPK, Oncoprotein 18
# [7] = phosphopeptide VoxMHTQCHSTPDpSAEDVR, Mouse fetuin
# [8] = phosphopeptide pTQTPPVpSPAPQPTEER, Oncogene EMS1
# [9] = phosphopeptide IEpSPKLER, Heat-shock 110 kD protein
# [10] = phosphopeptide RLpSPSApSPPR, Ser/Arg-related nuclear matrix protein
smiles,measurement,setting,value
"CC(C)(C)c1ccc(Nc2ncc(Cc3ccncc3)c3ccccc23)cc1 [BPMI, 1-(4-t-butylanilino)-4-[(pyridin-4-yl)-methyl]-isoquinoline]",Ser25 phosphorylation of oncoprotein 18 (OP18),"[1]; in vivo, tumor tissue DU145, 1-hour treatment",down-regulation
same,Change (treated/control),[1]; [3],0.4
same,"Change (treated/control), % down",[1]; [3],60%
same,Change (treated/control),[1]; [4],0.7
same,"Change (treated/control), % down",[1]; [4],30%
same,Change (treated/control),[1]; [5],0.5
same,"Change (treated/control), % down",[1]; [5],50%
same,Change (treated/control),[1]; [6],0.8
same,"Change (treated/control), % down",[1]; [6],20%
same,Change (treated/control),[1]; [7],0.6
same,"Change (treated/control), % down",[1]; [7],40%
same,Change (treated/control),[1]; [8],0.6
same,"Change (treated/control), % down",[1]; [8],40%
same,OP18 (oncoprotein 18) Ser25 phosphorylation,"[2]; HCT116 cell lysate, treated vs control",significantly down-regulated; also recorded: Down-regulation
same,Change (treated/control),[2]; [3],0.4
same,"Change (treated/control), % down",[2]; [3],60%
same,Change (treated/control),[2]; [9],0.7
same,"Change (treated/control), % down",[2]; [9],30%
same,Change (treated/control),[2]; [4],0.8
same,"Change (treated/control), % down",[2]; [4],20%
same,Change (treated/control),[2]; [10],0.7
same,"Change (treated/control), % down",[2]; [10],30%
same,Change (treated/control),[2]; [6],0.6
same,"Change (treated/control), % down",[2]; [6],40%
same,Change (treated/control),[2]; [8],0.8
same,"Change (treated/control), % down",[2]; [8],20%
